Like-named read-outs stand apart in the source and are kept apart here.
Tests used:
Type in all cases: in vivo
Phakopsora pachyrhizi = assay: Phakopsora test (soybeans)/preventive; details: for pest or weed control at 1 ppm: Table D2, application rate 1 ppm a.i.
[1] = tested on: Blumeria graminis f.sp. hordei; assay: Blumeria test (barley)/preventive; details: Table B1
Method: (§1) Solvent: 49 parts by weight of N,N-dimethylacetamide Emulsifier: 1 part by weight of alkylaryl polyglycol ether To produce a suitable preparation of active compound, 1 part by weight of active compound or active compound combination is mixed with the stated amounts of solvent and emulsifier, and the concentrate is diluted with water to the desired concentration. To test for preventive activity, young plants are sprayed with the preparation of active compound or active compound combination at the stated rate of application. After the spray coating has been dried, the plants are dusted with spores of Blumeria graminis f.sp. hordei.

Pyrenophora teres = assay: Pyrenophora teres-test (barley)/preventive; details: Table E1
Method: Solvent: 49 parts by weight of N,N-dimethylacetamide
(§2) Emulsifier: 1 part by weight of alkylaryl polyglycol ether
To produce a suitable preparation of active compound, 1 part by weight of active compound or active compound combination is mixed with the stated amounts of solvent and emulsifier, and the concentrate is diluted with water to the desired concentration.
To test for preventive activity, young plants are sprayed with the preparation of active compound or active compound combination at the stated rate of application.
After the spray coating has been dried, the plants are sprayed with a spore suspension of Pyrenophora teres. The plants remain for 48 hours in an incubation cabinet at approximately 20° C. and a relative atmospheric humidity of approximately 100%.
The plants are placed in the greenhouse at a temperature of approximately 20° C. and a relative atmospheric humidity of approximately 80%.
The test is evaluated 8 days after the inoculation. 0% means an efficacy which corresponds to that of the untreated control, while an efficacy of 100% means that no disease is observed.

Alternaria solani = assay: Alternaria test (tomatoes)/preventive
Method: (§3) Solvent: 24.5 parts by weight of acetone • 24.5 parts by weight of dimethylacetamide
as §2
(§4) To produce a suitable preparation of active compound, 1 part by weight of active compound is mixed with the stated amounts of solvent and emulsifier, and the concentrate is diluted with water to the desired concentration.
(§5) To test for preventive activity, young plants are sprayed with the preparation of active compound at the stated rate of application. After the spray coating has dried on, the plants are inoculated with an aqueous spore suspension of Alternaria solani. The plants are then placed in an incubation cabinet at approximately 20° C. and a relative atmospheric humidity of 100%.
The test is evaluated 3 days after the inoculation. 0% means an efficacy which corresponds to that of the untreated control while an efficacy of 100% means that no disease is observed.

Uromyces appendiculatus = assay: Uromyces test (beans)/preventive; details: for pest or weed control at 2 ppm: application rate 2 ppm a.i.; for pest or weed control at 0.5 ppm: application rate 0.5 ppm a.i.
Method: as §3, §2, §4
as §5, with “the causal agent of bean rust (Uromyces appendiculatus) and” for “Alternaria solani. The plants are”, “remain for 1 day” for “placed”
The plants are then placed in a greenhouse at approximately 21° C. and a relative atmospheric humidity of approximately 90%.
The test is evaluated 10 days after the inoculation. 0% means an efficacy which corresponds to that of the untreated control, while an efficacy of 100% means that no disease is observed.

Venturia inaequalis = assay: Venturia test (apples)/preventive; details: Table I1
Method: (§6) Solvent: 24.5 parts by weight of acetone • 24.5 parts by weight of dimethylacetamide Emulsifier: 1 part by weight of alkylaryl polyglycol ether To produce a suitable preparation of active compound, 1 part by weight of active compound is mixed with the stated amounts of solvent and emulsifier, and the concentrate is diluted with water to the desired concentration. To test for preventive activity, young plants are sprayed with the preparation of active compound at the stated rate of application.

Leptosphaeria nodorum = Leptosphaeria nodorum test (wheat)/preventive; details: Table C1
Method: as §1, with “sprayed” for “dusted”, “a spore suspension” for “spores”, “Leptosphaeria nodorum.” for “Blumeria graminis f.sp. hordei.”

Septoria tritici = assay: Septoria tritici-test (wheat)/preventive; details: Table F1
Method: as §1, with “sprayed” for “dusted”, “a spore suspension” for “spores”, “Septoria tritici.” for “Blumeria graminis f.sp. hordei.”

Sphaerotheca fuliginea = assay: Sphaerotheca test (cucumbers)/preventive; details: Table G1
Method: as §6, with “application. After the spray coating has dried on, the plants are inoculated with an aqueous spore suspension of Sphaerotheca fuliginea.” for “application.”

[2] = Phakopsora pachyrhizi, 168 h, read-out: Efficacy in % found
[3] = Table A1, application rate 0.5 ppm a.i.
[4] = Phakopsora pachyrhizi, 168 h, Table D1, application rate 0.5 ppm a.i., read-out: Efficacy in % found
[5] = Uromyces appendiculatus, 240 h, Table H2, read-out: Efficacy in % found
[6] = Table A3, application rate 20 ppm a.i.
[7] = Table H3, application rate 20 ppm a.i.
[8] = Table A2, application rate 5 ppm a.i.
[9] = Table D1, application rate 0.5 ppm a.i.
[10] = Table H1, application rate 0.25 ppm a.i.

## CC1CC(C)(C)c2cccc(NC(=O)c3cn(C)nc3C(F)F)c21 (stereo not shown) [2.32, 3-(difluoromethyl)-1-methyl-N-(1,1,3-trimethyl-2,3-dihydro-1H-inden-4-yl)-1H-pyrazole-4-carboxamide]
Phakopsora pachyrhizi; [2]
  pest or weed control at 0.5 ppm: 15%
[1]; application rate 80 ppm a.i.
  Efficacy in % found: 20%
Pyrenophora teres; application rate 80 ppm a.i.
  Efficacy in % found: 0%
Alternaria solani; [3]
  Efficacy in % found: 18%
Uromyces appendiculatus; Uromyces appendiculatus, 240 h, read-out: Efficacy in % found
  pest or weed control at 0.25 ppm: 75%
Venturia inaequalis; application rate 1 ppm a.i.
  Efficacy in % found: 39%

## COC(=O)N(OC)c1ccccc1COc1ccn(-c2ccc(Cl)cc2)n1 [3.17, pyraclostrobin]
Phakopsora pachyrhizi; Phakopsora pachyrhizi, 168 h, Table D1, application rate 0.25 ppm a.i., read-out: Efficacy in % found
  pest or weed control at 0.25 ppm: 0%
Alternaria solani; Table A1, application rate 1 ppm a.i.
  Efficacy in % found: 28%
Leptosphaeria nodorum; application rate 20 ppm a.i.
  Efficacy in % found: 50%
Venturia inaequalis; application rate 1 ppm a.i.
  Efficacy in % found: 23%
Septoria tritici; application rate 20 ppm a.i.
  Efficacy in % found: 0%

## CC(C)c1ccc(Cl)cc1CN(C(=O)c1c(C(F)F)nn(C)c1F)C1CC1 [15.151, N-(5-chloro-2-isopropylbenzyl)-N-cyclopropyl-3-(difluoromethyl)-5-fluoro-1-methyl-1H-pyrazole-4-carboxamide]
Phakopsora pachyrhizi; [4]
  pest or weed control at 0.5 ppm: 0%
[1]; application rate 20 ppm a.i.
  Efficacy in % found: 20%
Pyrenophora teres; application rate 20 ppm a.i.
  Efficacy in % found: 86%

## OC(Cc1ccccc1Cl)(Cn1nc[nH]c1=S)C1(Cl)CC1 (stereo not shown) [1.41, prothioconazole]
Phakopsora pachyrhizi; [2]
  pest or weed control at 1 ppm: 60%
Leptosphaeria nodorum; application rate 80 ppm a.i.
  Efficacy in % found: 30%
Uromyces appendiculatus; [5]
  pest or weed control at 2 ppm: 30%

## chlorothalonil [5.4]
Sphaerotheca fuliginea; application rate 20 ppm a.i.
  Efficacy in % found: 29%
Alternaria solani; [6]
  Efficacy in % found: 8%
Uromyces appendiculatus; [7]
  Efficacy in % found: 0%
Venturia inaequalis; application rate 20 ppm a.i.
  Efficacy in % found: 68%
Septoria tritici; application rate 160 ppm a.i.
  Efficacy in % found: 0%

## Fc1ccc([C@]2(Cn3cncn3)O[C@H]2c2ccccc2Cl)cc1 (racemic) [1.12, epoxiconazole]
Phakopsora pachyrhizi; [4]
  pest or weed control at 0.5 ppm: 23%
Sphaerotheca fuliginea; application rate 1 ppm a.i.
  Efficacy in % found: 0%
Leptosphaeria nodorum; application rate 40 ppm a.i.
  Efficacy in % found: 60%
Uromyces appendiculatus; [5]
  pest or weed control at 0.5 ppm: 30%
Septoria tritici; application rate 40 ppm a.i.
  Efficacy in % found: 14%

## CC(C1CC1)C(O)(Cn1cncn1)c1ccc(Cl)cc1 (stereo not shown) [1.5, cyproconazole]
Sphaerotheca fuliginea; application rate 1.25 ppm a.i.
  Efficacy in % found: 52%
Alternaria solani; [8]
  Efficacy in % found: 23%
Uromyces appendiculatus; [5]
  pest or weed control at 0.5 ppm: 50%
Septoria tritici; application rate 80 ppm a.i.
  Efficacy in % found: 0%

## Cn1cc(C(=O)Nc2ccc(F)cc2-c2ccc(Cl)c(Cl)c2)c(C(F)F)n1 [2.1, bixafen]
Phakopsora pachyrhizi; [9]
  Efficacy in % found: 0%
Pyrenophora teres; application rate 80 ppm a.i.
  Efficacy in % found: 86%
Alternaria solani; [3]
  Efficacy in % found: 43%
Uromyces appendiculatus; [10]
  Efficacy in % found: 30%
Venturia inaequalis; application rate 1 ppm a.i.
  Efficacy in % found: 36%

## Cn1cc(C(=O)Nc2ccccc2-c2cc(F)c(F)c(F)c2)c(C(F)F)n1 [2.8, fluxapyroxad]
Phakopsora pachyrhizi; [9]
  Efficacy in % found: 0%
[1]; application rate 40 ppm a.i.
  Efficacy in % found: 30%
Pyrenophora teres; application rate 80 ppm a.i.
  Efficacy in % found: 57%
Alternaria solani; [3]
  Efficacy in % found: 58%
Uromyces appendiculatus; [10]
  Efficacy in % found: 0%

## CC(C)CC(C)c1sccc1NC(=O)c1cn(C)nc1C(F)(F)F (stereo not shown) [2.21, penthiopyrad]
Phakopsora pachyrhizi; [4]
  pest or weed control at 0.5 ppm: 0%
[1]; application rate 80 ppm a.i.
  Efficacy in % found: 20%
Alternaria solani; [3]
  Efficacy in % found: 27%
Uromyces appendiculatus; Uromyces appendiculatus, 240 h, Table H1, application rate 0.25 ppm a.i., read-out: Efficacy in % found
  pest or weed control at 0.25 ppm: 30%

## CC(C)(C)C(O)(CCc1ccc(Cl)cc1)Cn1cncn1 (stereo not shown) [1.47, tebuconazole]
Phakopsora pachyrhizi; [2]
  pest or weed control at 1 ppm: 50%
Septoria tritici; application rate 80 ppm a.i.
  Efficacy in % found: 14%

## CO/C=C(/C(=O)OC)c1ccccc1Oc1cc(Oc2ccccc2C#N)ncn1 [3.3, azoxystrobin]
Phakopsora pachyrhizi; Table D3, application rate 0.5 ppm a.i.
  Efficacy in % found: 68%
Pyrenophora teres; application rate 20 ppm a.i.
  Efficacy in % found: 57%
Alternaria solani; [8]
  Efficacy in % found: 35%
Venturia inaequalis; application rate 0.5 ppm a.i.
  Efficacy in % found: 88%

## CON=C(C(=O)OC)c1ccccc1CON=C(C)c1cccc(C(F)(F)F)c1 [3.22, trifloxystrobin]
Alternaria solani; [8]
  Efficacy in % found: 45%
Leptosphaeria nodorum; application rate 20 ppm a.i.
  Efficacy in % found: 40%
Venturia inaequalis; application rate 0.25 ppm a.i.
  Efficacy in % found: 66%
Septoria tritici; application rate 20 ppm a.i.
  Efficacy in % found: 71%

## CO/C=C(/C(=O)OC)c1ccccc1COc1cccc(C(F)(F)F)n1 [3.16, picoxystrobin]
Phakopsora pachyrhizi; Table D1, application rate 0.25 ppm a.i.
  Efficacy in % found: 8%
[1]; application rate 40 ppm a.i.
  Efficacy in % found: 50%
Pyrenophora teres; application rate 40 ppm a.i.
  Efficacy in % found: 71%
Uromyces appendiculatus; Table H2, application rate 2.5 ppm a.i.
  Efficacy in % found: 65%

## CO/N=C(/C1=NOCCO1)c1ccccc1Oc1ncnc(Oc2ccccc2Cl)c1F [3.12, fluoxastrobin]
Pyrenophora teres; application rate 20 ppm a.i.
  Efficacy in % found: 16%
Uromyces appendiculatus; [5]
  pest or weed control at 0.5 ppm: 65%
Venturia inaequalis; application rate 0.5 ppm a.i.
  Efficacy in % found: 30%

## CC1(C)CCC(Cc2ccc(Cl)cc2)C1(O)Cn1cncn1 (stereo not shown) [1.30, metconazole]
Leptosphaeria nodorum; application rate 40 ppm a.i.
  Efficacy in % found: 30%
Uromyces appendiculatus; [5]
  pest or weed control at 2 ppm: 30%

## O=C(NCCc1ncc(C(F)(F)F)cc1Cl)c1ccccc1C(F)(F)F [2.6, fluopyram]
Phakopsora pachyrhizi; Phakopsora pachyrhizi, 168 h, Table D1, application rate 2 ppm a.i., read-out: Efficacy in % found
  pest or weed control at 2 ppm: 0%
[1]; application rate 40 ppm a.i.
  Efficacy in % found: 0%
Pyrenophora teres; application rate 40 ppm a.i.
  Efficacy in % found: 57%
Alternaria solani; Table A1, application rate 2 ppm a.i.
  Efficacy in % found: 34%
Uromyces appendiculatus; Uromyces appendiculatus, 240 h, Table H1, application rate 1 ppm a.i., read-out: Efficacy in % found
  pest or weed control at 1 ppm: 15%

## Cn1cc(C(=O)Nc2cccc3c2[C@@H]2CC[C@H]3C2=C(Cl)Cl)c(C(F)F)n1 (racemic) [2.29, benzovindiflupyr]
Phakopsora pachyrhizi; [9]
  Efficacy in % found: 8%
[1]; application rate 40 ppm a.i.
  Efficacy in % found: 0%
Pyrenophora teres; application rate 40 ppm a.i.
  Efficacy in % found: 0%
Alternaria solani; [3]
  Efficacy in % found: 40%

## propineb [5.29]
Phakopsora pachyrhizi; Table D3, application rate 20 ppm a.i.
  Efficacy in % found: 0%
Sphaerotheca fuliginea; application rate 20 ppm a.i.
  Efficacy in % found: 71%
Alternaria solani; [6]
  Efficacy in % found: 12%
Uromyces appendiculatus; [7]
  Efficacy in % found: 56%
Venturia inaequalis; application rate 5 ppm a.i.
  Efficacy in % found: 14%
Septoria tritici; application rate 400 ppm a.i.
  Efficacy in % found: 29%
